Calls of active or inactive are those of the source. The rule behind the calls is not given here.
What was measured:
MDA-MB-231 [1] = assay: Antimigratory activity against human MDA-MB-231 cells harboring high integrin alphaVbeta3 expression assessed as inhibition of cell migration incubated for 48 hrs by crystal violet staining based transwell assay; assay type: functional; conditions: dose 200-300 nM
[2] = Toxicity in BALB/C mouse xenografted with human MDA-MB-231 cells assessed as weight loss at 5 to 8 uM, iv administered for 21 days and measured every 3 days; assay type: organism-based; conditions: in vivo, 504 h, dose 5-8 µM, time 21 day
[3] = Antitumor activity against patient-derived Breast cancer organoid assessed as inhibition of cell growth incubated for approximately 3 to 5 days by CCK-8 assay; assay type: functional, tissue-based; conditions: Homo sapiens
[4] = Toxicity in BALB/C mouse xenografted with human MDA-MB-231 cells assessed as effect on lung weight at 5 to 8 uM, iv administered every other day for 21 days; assay type: organism-based; conditions: in vivo, 504 h, dose 5-8 µM, time 21 day
[5] = target: Bromodomain-containing protein 4 (Homo sapiens) (UniProt O60885); assay: Induction of BRD4 degradation in human L02 cells lacking integrin alphaVbeta3 expression at 300 nM incubated for 12 hrs by immunofluorescence staining based confocal microscopic analysis; assay type: cell-based
[6] = target: Bromodomain-containing protein 4 (Homo sapiens) (UniProt O60885); assay: Induction of BRD4 degradation in human MDA-MB-231 cells harboring high integrin alphaVbeta3 expression at 1 uM incubated for 12 hrs by immunofluorescence staining based confocal microscopic analysis; assay type: cell-based
[7] = target: Bromodomain-containing protein 4 (Homo sapiens) (UniProt O60885); assay: Induction of BRD4 degradation in human MDA-MB-231 cells harboring high integrin alphaVbeta3 expression at 300 nM incubated for 16 to 20 hrs by Western blot analysis; assay type: cell-based; conditions: time 16-20 hrs
MDA-MB-231 [8] = assay: Antiproliferative activity against human MDA-MB-231 cells harboring high integrin alphaVbeta3 expression assessed as inhibition of cell growth incubated for 72 hrs by CCK-8 assay; assay type: functional, cell-based; conditions: MDA-MB-231, 72 h
MCF7 = assay: Antiproliferative activity against human MCF7 cells harboring low integrin alphaVbeta3 expression assessed as inhibition of cell growth incubated for 72 hrs by CCK-8 assay; assay type: functional, cell-based; conditions: MCF7, 72 h
MDA-MB-231 [9] = assay: Antitumor activity against human MDA-MB-231 cells xenografted in BALB/C nude mouse assessed as tumor growth inhibition at 5 uM, iv administered every other day and measured after 21 days by vernier caliper method relative to control; assay type: functional; conditions: MDA-MB-231, 504 h, time 21 day, read-out: TGI
[10] = Toxicity in BALB/C mouse xenografted with human MDA-MB-231 cells assessed as adverse reactions at 5 to 8 uM, iv administered for 21 days and measured every 3 days; assay type: organism-based; conditions: in vivo, 504 h, dose 5-8 µM, time 21 day
[11] = Drug release in PBS assessed as increase in (2S)-1-((R)-2-(tert-butyl)-17-((S)-4-(4-chlorophenyl)-2,3,9-trimethyl-6H-thieno[3,2-f][1,2,4]triazolo[4,3-a][1,4]diazepin-6-yl)-4,16-dioxo-6,9,12-trioxa-3,15-diazaheptadecanoyl)-4-hydroxy-N-((S)-1-(4-(4-methylthiazol-5-yl)phenyl)ethyl)pyrrolidine-2-carboxamide concentration at 50 uM in presence of GSH by LC-MS analysis; assay type: ADME; conditions: buffer, TDE = time-dependent effect
[12] = Stability of compound in PBS containing 5% serum at 50 uM measured after 72 hrs by LC-MS analysis; assay type: physicochemical, cell-free; conditions: read-out: Stability
[13] = Toxicity in BALB/C mouse xenografted with human MDA-MB-231 cells assessed as effect on spleen weight at 5 to 8 uM, iv administered every other day for 21 days; assay type: organism-based; conditions: in vivo, 504 h, dose 5-8 µM, time 21 day
L02 = assay: Antiproliferative activity against human L02 cells harboring minimal integrin alphaVbeta3 expression assessed as inhibition of cell growth incubated for 72 hrs by CCK-8 assay; assay type: functional, cell-based; conditions: L02, 72 h
[14] = Toxicity in BALB/C mouse xenografted with human MDA-MB-231 cells assessed as lung damage at 5 to 8 uM, iv administered every other day for 21 days and measured 37 days post treatment by H and E staining based assay; assay type: organism-based; conditions: in vivo, 1392 h, dose 5-8 µM, time 58 day
Mus musculus [15] = assay: In vivo induction of BRD4 degradation in BALB/C mouse xenografted with human MDA-MB-231 cells assessed as reduction in BRD4 level by measuring reduction in green fluorescence at 5 to 8 uM, iv administered every other day and measured after 21 days by immunofluorescence analysis; assay type: functional, organism-based; conditions: dose 5-8 µM, time 21.0 day
Homo sapiens [16] = organism: Homo sapiens; assay: Antitumor activity against patient-derived Breast cancer organoid assessed as increase in number of apoptotic cells by measuring increase in red fluorescence at 0.5 to 1 uM incubated for approximately 3 to 5 days by acridine orange/ethidium bromide double staining ssay; assay type: functional, cell-based; conditions: dose 0.5-1 µM, time 3-5 day
[17] = Solubility in distilled water measured for 30 mins by ultraviolet spectrophotometry analysis; assay type: physicochemical
[18] = Toxicity in BALB/C mouse xenografted with human MDA-MB-231 cells assessed as liver damage at 5 to 8 uM, iv administered every other day for 21 days and measured 37 days post treatment by H and E staining based assay; assay type: organism-based; conditions: in vivo, 1392 h, dose 5-8 µM, time 58 day
Homo sapiens [19] = organism: Homo sapiens; assay: Antitumor activity against patient-derived Breast cancer organoid assessed as reduction in number of proliferating cells by measuring reduction in red fluorescence at 0.5 uM incubated for approximately 3 days by Edu incorporation assay; assay type: functional, tissue-based; conditions: time 3.0 day
[20] = target: Bromodomain-containing protein 4 (Homo sapiens) (UniProt O60885); assay: Induction of BRD4 degradation in human MDA-MB-231 cells harboring high integrin alphaVbeta3 expression assessed as reduction in BRD4 levels at 500 nM pretreated with integrin receptor antagonist cilengitide for 2 hrs followed by compound addition and measured after 12 hrs by immunofluorescence staining based confocal microscopic analysis; assay type: cell-based
MDA-MB-231 [21] = assay: Antitumor activity against human MDA-MB-231 cells xenografted in BALB/C nude mouse assessed as induction of apoptosis in tumor cells at 5 to 8 uM, iv administered every other day and measured after 21 days by immunohistochemistry; assay type: functional, organism-based; conditions: dose 5-8 µM, time 21.0 day
Homo sapiens [22] = organism: Homo sapiens; assay: Antitumor activity against patient-derived Breast cancer organoid assessed as increase in number of apoptotic cells by measuring reduction in green fluorescence at 0.5 to 1 uM incubated for approximately 3 to 5 days by acridine orange/ethidium bromide double staining ssay; assay type: functional, cell-based; conditions: dose 0.5-1 µM, time 3-5 day
MDA-MB-231 [23] = assay: Antitumor activity against human MDA-MB-231 cells xenografted in BALB/C nude mouse assessed as disruption of tumor blood vessel wall at 5 uM, iv administered every other day and measured after 21 days by H and E staining based assay; assay type: functional, organism-based; conditions: time 21.0 day
[24] = target: Bromodomain-containing protein 4 (Homo sapiens) (UniProt O60885); assay: Induction of BRD4 degradation in human MCF7 cells harboring low integrin alphaVbeta3 expression at 300 nM incubated for 12 hrs by immunofluorescence staining based confocal microscopic analysis; assay type: cell-based
[25] = target: Bromodomain-containing protein 4 (Homo sapiens) (UniProt O60885); assay: Induction of BRD4 degradation in human MDA-MB-231 cells harboring high integrin alphaVbeta3 expression assessed as reduction in BRD4 levels at 500 nM incubated for 12 hrs by immunofluorescence staining based confocal microscopic analysis; assay type: cell-based
Mus musculus [26] = assay: In vivo induction of BRD4 degradation in BALB/C mouse xenografted with human MDA-MB-231 cells assessed as reduction in BRD4 level in tumor at 5 to 8 uM, iv administered every other day and measured after 21 days by immunohistochemistry analysis; assay type: functional, organism-based; conditions: dose 5-8 µM, time 21.0 day
MDA-MB-231 [27] = assay: Antitumor activity against human MDA-MB-231 cells xenografted in BALB/C nude mouse assessed as tumor growth inhibition at 8 uM, iv administered every other day and measured after 21 days by vernier caliper method relative to control; assay type: functional; conditions: MDA-MB-231, 504 h, time 21 day, read-out: TGI
[28] = Toxicity in BALB/C mouse xenografted with human MDA-MB-231 cells assessed as effect on heart weight at 5 to 8 uM, iv administered every other day for 21 days; assay type: organism-based; conditions: in vivo, 504 h, dose 5-8 µM, time 21 day
MDA-MB-231 [29] = assay: Antitumor activity against human MDA-MB-231 cells xenografted in BALB/C nude mouse assessed as appearance of collapsed extravascular tumor tissue at 5 uM, iv administered every other day and measured after 21 days by H and E staining based assay; assay type: functional, organism-based; conditions: time 21.0 day

SMILES: Cc1ncsc1-c1ccc([C@H](C)NC(=O)[C@@H]2C[C@@H](OC(=O)OCCSSCCOC(=O)CCC(=O)NCCCC[C@@H]3NC(=O)[C@H](CC(=O)O)NC(=O)CNC(=O)[C@H](CCCNC(=N)N)NC(=O)[C@@H](N)CSSC[C@@H](C(=O)O)NC(=O)[C@H](CC(=O)O)NC(=O)[C@@H]4CCCN4C(=O)CNC3=O)CN2C(=O)[C@@H](NC(=O)COCCOCCOCCNC(=O)C[C@@H]2N=C(c3ccc(Cl)cc3)c3c(sc(C)c3C)-n3c(C)nnc32)C(C)(C)C)cc1
- Activity (MDA-MB-231 [1]): Dose-Dependent Effect
- Activity [2]: Non-Toxic
- IC50 [3]: 950 nM
- Activity [4]: Non-Toxic
- Activity [5]: inactive
- Activity [6]: Active
- Activity [7]: Active
- IC50 (MDA-MB-231 [8]): 88 nM
- IC50 (MCF7): 260 nM
- inhibition in vivo at 5 µM (MDA-MB-231 [9]): 62.3%
- Activity [10]: Non-Toxic
- Drug metabolism [11]: Tde
- remaining at 72 h, 50 µM [12]: 89.9%
- Activity [13]: Non-Toxic
- IC50 (L02): 1500 nM
- Activity [14]: Non-Toxic
- Activity (Mus musculus [15]): Active
- Activity (Homo sapiens [16]): Active
- solubility at 0.5 h [17]: > 10 mM
- Activity [18]: Non-Toxic
- Activity (Homo sapiens [19]): Active
- Activity [20]: inactive
- Activity (MDA-MB-231 [21]): Active
- Activity (Homo sapiens [22]): Active
- Activity (MDA-MB-231 [23]): Active
- Activity [24]: inactive
- Activity [25]: Active
- Activity (Mus musculus [26]): Active
- inhibition in vivo at 8 µM (MDA-MB-231 [27]): 81.5%
- Activity [28]: Non-Toxic
- Activity (MDA-MB-231 [29]): Active

Source: ChEMBL document CHEMBL5375981, “Enhanced Tumor Targeting and Penetration of Proteolysis-Targeting Chimeras through iRGD Peptide Conjugation: A Strategy for Precise Protein Degradation in Breast Cancer” (J Med Chem, 2023)
